# According to article PMC11990103, “Anticancer Activity and Safety Profile of Novel 1-(4-Fluorophenoxyacetyl)-4-substituted Thio/Semicarbazide Derivatives” (Molecules, 2025):
# Test system: BJ fibroblasts
# Experiment: MTT cytotoxicity assay, normal cells
# Type: cell-based, human
# Conditions: 48 h treatment, read-out: IC50 BJ (fibroblast)
# Method: These cancer cell lines comprised prostate cancer (PC-3, DU-145, LNCaP), melanoma (SK-MEL28, A375, G-361), breast cancer (MCF-7, MDA-MB-231), and lung cancer (NCI-H1563). The MTT assay was carried out across a wide range of concentrations for 48 h.
# The research was conducted on one primary cell line: BJ (fibroblast) and four types of cancerous ones: three prostate cancer cell lines (PC-3, DU-145, LNCaP); 3 Melanoma cell lines (MEL-28, A375, G-361); 2 breast cancer cell lines (MCF-7, MDA-MB-23) and one lung cancer cell line (NCI-H1563). All cell lines were obtained from the American Type Culture Collection (ATCC, Manassas, VA, USA) and were grown in media (Corning, New York, NY, USA) according to ATCC guidelines. The culture media was enriched with 10% heat-inactivated fetal bovine serum (Life Technologies, Carlsbad, CA, USA) and antibiotics: penicillin (100 units) and streptomycin (100 μg/mL) from Sigma-Aldrich (St. Louis, MO, USA). The cells were incubated at 37 °C with 5% CO2 in air.
# The cytotoxic analysis of thiosemicarbazides (TSC) (AB1–AB6) and semicarbazides (SC) (AB7–AB12) was conducted in various concentrations. […] The cells were treated with compounds or DMSO as a vehicle in control cultures for 48h. IC50 values were determined using the AAT Bioquest IC50 calculator (AAT Bioquest, Inc., Pleasanton, CA, USA, Quest Graph™ EC50 Calculator. https://www.aatbio.com/tools/ec50-calculator) (accessed on 7 October 2024).
# The cytotoxic activity of the thiosemicarbazides and semicarbazides was measured using the MTT colorimetric assay (MTT Cell Proliferation Assay Kit—Invitrogen, Waltham, MA, USA). The cells were seeded in the 96-well plates at a density of 1.5 × 10^5 cells/mL. After reaching 70–80% of confluence, the tested compounds in a wide range of concentrations were added. Plates were incubated for 48 h at 37 °C in 5% CO2 air. Then, […] tetrazolium salt (3-(4,5-dimethylthiazol-2-yl)-2,5-diphenyltetrazolium bromide)—MTT reagent (0.5 mg/mL) dissolved in PBS was added to each well for 4 h. The MTT solution was then removed from above the water-insoluble purple formazan crystals, which were then dissolved in DMSO (dimethyl sulfoxide, […]; POCH, Gliwice, Poland). The absorbance value of obtained solutions was measured using a PowerWave ™ microplate spectrophotometer (Bio-Tek Instruments, Winooski, VT, USA) at a wavelength of 570 nm. Each cytotoxicity assay was repeated three times in triplicates.
smiles,measurement,value
O=C(COc1ccc(F)cc1)NNC(=S)Nc1ccccc1Cl [AB2],IC50,453 µM
